Measured values from PubChem BioAssay (NCI).
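Following 48 hours of exposure in 96-well plates, responses at five concentrations were used to interpolate endpoints linearly. Abbreviation: GI50, concentration required for 50% inhibition of growth. TGI denotes the concentration required for complete inhibition of growth.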

Key:
Experiment in all cases: inhibition of tumour cell growth, NCI panel, 48 h
[1] = system: SN12C renal
[2] = system: TK-10 renal
[3] = system: NCI-H460 lung
[4] = system: IGROV1 ovarian
[5] = system: BT-549 breast
[6] = system: ACHN renal
[7] = system: NCI-H23 lung
[8] = system: HOP-92 NSCLC
[9] = system: M14 melanoma
[10] = system: SNB-75 CNS
[11] = system: 786-0 renal
[12] = system: MDA-MB-231 breast
[13] = system: CCRF-CEM leukemia
[14] = system: UACC-257 melanoma
[15] = system: RXF 393 renal
[16] = system: HCT-116 colon
[17] = system: OVCAR-4 ovarian
[18] = system: OVCAR-3 ovarian
[19] = system: KM12 colon
[20] = system: HOP-62 NSCLC
[21] = system: SF-268 CNS
[22] = system: HL-60(TB) leukemia
[23] = system: K-562 leukemia
[24] = system: HS 578T breast
[25] = system: HCT-15 colon
[26] = system: HCC-2998 colon
[27] = system: NCI-H522 lung
[28] = system: EKVX NSCLC
[29] = system: SF-295 CNS
[30] = system: UO-31 renal
[31] = system: A549 NSCLC
[32] = system: MCF7 breast
[33] = system: T-47D breast
[34] = system: CAKI-1 renal
[35] = system: SW-620 colon
[36] = system: NCI-H226 lung
[37] = system: COLO 205 colon
[38] = system: U251 CNS
[39] = system: SF-539 CNS
[40] = system: PC-3 prostate
[41] = system: SR leukemia
[42] = system: OVCAR-8 ovarian
[43] = system: DU-145 prostate
[44] = system: MDA-MB-435
[45] = system: SK-MEL-5 melanoma
[46] = system: LOX IMVI melanoma
[47] = system: SK-MEL-28 melanoma
[48] = system: SNB-19 CNS
[49] = system: HT29 colon
[50] = system: UACC-62 melanoma
[51] = system: OVCAR-5 ovarian
[52] = system: SK-OV-3 ovarian
[53] = system: MALME-3M melanoma
[54] = system: MDA-MB-468 breast
[55] = system: MOLT-4 leukemia
[56] = system: RPMI-8226 leukemia
[57] = system: A498 renal
[58] = system: SK-MEL-2 melanoma

Compound: CC(C)Sc1nc(NCCc2c[nH]c3ccccc23)c(C#N)c(-c2ccccc2)n1
- GI50 [1]: 13.3 µM
- TGI [1]: 26.2 µM
- GI50 [2]: 22.8 µM
- TGI [2]: 46.8 µM
- GI50 [3]: 8.41 µM
- TGI [3]: 27.9 µM
- GI50 [4]: 16.6 µM
- TGI [4]: 32 µM
- GI50 [5]: 13.2 µM
- TGI [5]: 26.6 µM
- GI50 [6]: 14.3 µM
- TGI [6]: 28 µM
- GI50 [7]: 15.5 µM
- TGI [7]: 30.7 µM
- GI50 [8]: 14.7 µM
- TGI [8]: 33.7 µM
- GI50 [9]: 13.8 µM
- TGI [9]: 28.4 µM
- GI50 [10]: 17.8 µM
- TGI [10]: 56.9 µM
- GI50 [11]: 12.6 µM
- TGI [11]: 30.5 µM
- GI50 [12]: 11.8 µM
- TGI [12]: 27.3 µM
- GI50 [13]: 9.41 µM
- TGI [13]: > 100 µM
- GI50 [14]: 18.8 µM
- TGI [14]: 41.8 µM
- GI50 [15]: 6.66 µM
- TGI [15]: 20.3 µM
- GI50 [16]: 5.17 µM
- TGI [16]: 18.5 µM
- GI50 [17]: 13.4 µM
- TGI [17]: 36.4 µM
- GI50 [18]: 15.8 µM
- TGI [18]: 30.8 µM
- GI50 [19]: 5.54 µM
- TGI [19]: 22.1 µM
- GI50 [20]: 13.5 µM
- TGI [20]: 27.8 µM
- GI50 [21]: 18.4 µM
- TGI [21]: 48.3 µM
- GI50 [22]: 13.5 µM
- TGI [22]: > 100 µM
- GI50 [23]: 4.85 µM
- TGI [23]: > 100 µM
- GI50 [24]: 14.8 µM
- TGI [24]: 56.1 µM
- GI50 [25]: 5.38 µM
- TGI [25]: 18.2 µM
- GI50 [26]: 10 µM
- TGI [26]: 22.6 µM
- GI50 [27]: 15.3 µM
- TGI [27]: 30.9 µM
- GI50 [28]: 12.1 µM
- TGI [28]: 31.1 µM
- GI50 [29]: 13.7 µM
- TGI [29]: 29.6 µM
- GI50 [30]: 14.3 µM
- TGI [30]: 31.2 µM
- GI50 [31]: 18.4 µM
- TGI [31]: 42.5 µM
- GI50 [32]: 11.3 µM
- TGI [32]: 25.4 µM
- GI50 [33]: 6.54 µM
- TGI [33]: 20.8 µM
- GI50 [34]: 11.2 µM
- TGI [34]: 26 µM
- GI50 [35]: 10.3 µM
- TGI [35]: 26 µM
- GI50 [36]: 13 µM
- TGI [36]: 27.3 µM
- GI50 [37]: 8.37 µM
- TGI [37]: 21.2 µM
- GI50 [38]: 11.6 µM
- TGI [38]: 24.4 µM
- GI50 [39]: 13 µM
- TGI [39]: 27 µM
- GI50 [40]: 7.08 µM
- TGI [40]: 43.8 µM
- GI50 [41]: 5.25 µM
- TGI [41]: > 100 µM
- GI50 [42]: 18.2 µM
- TGI [42]: 51.4 µM
- GI50 [43]: 14.9 µM
- TGI [43]: 34.8 µM
- GI50 [44]: 14.4 µM
- TGI [44]: 28.2 µM
- GI50 [45]: 11.4 µM
- TGI [45]: 23.6 µM
- GI50 [46]: 4.57 µM
- TGI [46]: 15.3 µM
- GI50 [47]: 14.4 µM
- TGI [47]: 28.6 µM
- GI50 [48]: 15.8 µM
- TGI [48]: 33.3 µM
- GI50 [49]: 5.57 µM
- TGI [49]: 18.9 µM
- GI50 [50]: 14.4 µM
- TGI [50]: 27.6 µM
- GI50 [51]: 12.1 µM
- TGI [51]: 25.2 µM
- GI50 [52]: 17.5 µM
- TGI [52]: 45.4 µM
- GI50 [53]: 16.5 µM
- TGI [53]: 30.7 µM
- GI50 [54]: 3.12 µM
- TGI [54]: 9.98 µM
- GI50 [55]: 9.21 µM
- TGI [55]: > 100 µM
- GI50 [56]: 11.4 µM
- TGI [56]: > 100 µM
- GI50 [57]: 15.1 µM
- TGI [57]: 29.5 µM

Compound: Oc1ccc(/C=C2\CCCc3cc4ccc(O)cc4[o+]c32)c(O)c1
- GI50 [1]: 29.9 µM
- TGI [1]: > 100 µM
- GI50 [2]: 47.2 µM
- TGI [2]: > 100 µM
- GI50 [3]: 5.14 µM
- TGI [3]: 42.2 µM
- GI50 [4]: 18.9 µM
- TGI [4]: 78.1 µM
- GI50 [5]: 5.75 µM
- TGI [5]: > 100 µM
- GI50 [6]: 6.1 µM
- TGI [6]: > 100 µM
- GI50 [7]: 11.7 µM
- TGI [7]: > 100 µM
- GI50 [8]: 6.43 µM
- TGI [8]: > 100 µM
- GI50 [9]: 6.7 µM
- TGI [9]: > 100 µM
- GI50 [10]: 2.88 µM
- TGI [10]: 65.6 µM
- GI50 [11]: 8.21 µM
- TGI [11]: > 100 µM
- GI50 [12]: 3.99 µM
- TGI [12]: 33.1 µM
- GI50 [58]: 12.2 µM
- TGI [58]: 58.6 µM
- GI50 [13]: 3.56 µM
- TGI [13]: > 100 µM
- GI50 [14]: 15.3 µM
- TGI [14]: > 100 µM
- GI50 [15]: 2.26 µM
- TGI [15]: 10.8 µM
- GI50 [16]: 3.82 µM
- TGI [16]: > 100 µM
- GI50 [17]: 16.5 µM
- TGI [17]: > 100 µM
- GI50 [18]: 3.39 µM
- TGI [18]: 14.7 µM
- GI50 [19]: 3.3 µM
- TGI [19]: 13.7 µM
- GI50 [20]: 44.2 µM
- TGI [20]: > 100 µM
- GI50 [21]: 6.81 µM
- TGI [21]: > 100 µM
- GI50 [22]: 2.65 µM
- TGI [22]: 57.3 µM
- GI50 [23]: 4.03 µM
- TGI [23]: > 100 µM
- GI50 [24]: 2.68 µM
- TGI [24]: > 100 µM
- GI50 [25]: 3.27 µM
- TGI [25]: 11.2 µM
- GI50 [26]: 6.29 µM
- TGI [26]: 20.4 µM
- GI50 [27]: 2.51 µM
- TGI [27]: 11.2 µM
- GI50 [28]: 8.82 µM
- TGI [28]: > 100 µM
- GI50 [29]: 19.7 µM
- TGI [29]: > 100 µM
- GI50 [30]: 7.23 µM
- TGI [30]: 59.9 µM
- GI50 [31]: 44.2 µM
- TGI [31]: > 100 µM
- GI50 [32]: 2.68 µM
- TGI [32]: 70.8 µM
- GI50 [33]: 5.23 µM
- TGI [33]: > 100 µM
- GI50 [34]: 5.25 µM
- TGI [34]: > 100 µM
- GI50 [35]: 3.87 µM
- TGI [35]: 69.2 µM
- GI50 [36]: 26.6 µM
- TGI [36]: > 100 µM
- GI50 [37]: 15.2 µM
- TGI [37]: 44.5 µM
- GI50 [38]: 4.16 µM
- TGI [38]: 41.3 µM
- GI50 [39]: 7.04 µM
- TGI [39]: 42 µM
- GI50 [40]: 4.09 µM
- TGI [40]: > 100 µM
- GI50 [41]: 3.09 µM
- TGI [41]: > 100 µM
- GI50 [42]: 6.91 µM
- TGI [42]: > 100 µM
- GI50 [43]: 22.2 µM
- TGI [43]: > 100 µM
- GI50 [45]: 5.74 µM
- TGI [45]: 19.9 µM
- GI50 [46]: 2.95 µM
- TGI [46]: 12.5 µM
- GI50 [47]: 12.3 µM
- TGI [47]: 52.4 µM
- GI50 [48]: 24.9 µM
- TGI [48]: > 100 µM
- GI50 [49]: 17.9 µM
- TGI [49]: 46.6 µM
- GI50 [50]: 5.02 µM
- TGI [50]: 26 µM
- GI50 [51]: 53.1 µM
- TGI [51]: > 100 µM
- GI50 [52]: 27.2 µM
- TGI [52]: > 100 µM
- GI50 [53]: 4.77 µM
- TGI [53]: 40.3 µM
- GI50 [54]: 1.99 µM
- TGI [54]: 6.46 µM
- GI50 [55]: 3.06 µM
- TGI [55]: > 100 µM
- GI50 [56]: 4.93 µM
- TGI [56]: > 100 µM
- GI50 [57]: > 100 µM
- TGI [57]: > 100 µM
